The test system of test [1] is NMDA induced convulsions in mice. The test can be described thus: Inhibition of NMDA induced convulsions in the mouse (procedure of Chiamulera C et al.). In kind it is in vivo. Conditions: read-out: ED50 (dose required to protect 50% of the animals from the convulsive action of the NMDA). The text has this:
In this test the ability of the compound when administered iv to inhibit the generalized seizures induced by an intracerebroventricular injection of NMDA in mice was examined at a number of dose levels.

Test [2] concerns the target T1, strychnine insensitive glycine binding site located on the NMDA receptor complex (Rattus norvegicus, UniProt P35439).
T1 construct: determined using the procedure of Kishimoto H. et al J. Neurochem 1981, 37, 1015-1024; from tissue
The test can be described thus: biochemical.

[3] abbreviates: mice, compound iv, generalized seizures induced by intracerebroventricular injection of NMDA.
The mark [4] stands for this setting: strychnine insensitive glycine binding site, read-out: pKi (converted).

Like-named read-outs stand apart in the source and are kept apart here.

For orientation: ED50 means the midpoint of the dose-response relation.

Take `O=C(/C=C1\CC(C(=O)[O-])Nc2cc(Cl)cc(Cl)c21)Nc1ccccc1.[Na+]` (racemic): the ED50 in test [1] (iv) turned out to be 1 mg/kg.
In turn, `O=C(/C=C1\CC(C(=O)[O-])Nc2cc(Cl)ccc21)Nc1ccccc1.[Na+]` (racemic) [Example 2, (+/-)(E)7-Chloro-4-Phenylcarbamoylmethylene-1,2,3,4-Tetrahydro-Quinoline-2- Carboxylic Acid Sodium Salt] gave a Ki in test [2] of 39.8 nM. Moreover, the ED50 in test [1] (setting [3]) came out at 0.2 mg/kg.
For the compound `CC(=O)Nc1ccc(NC(=O)/C=C2\CC(C(=O)O)Nc3cc(Cl)cc(Cl)c32)cc1` (racemic) [Example 5, (+/-)(E)-4-(4-Acetylamino-Phenylcarbamoylmethylene)-5,7-Dichloro-1,2,3,4-Tetrahydro-Quinoline-2-Carboxylic Acid], the Ki in test [2] (setting [4]) is 7.94 nM. Further, the ED50 in test [1] (setting [3]) is 0.2 mg/kg.
Regarding `CC(=O)Nc1cccc(NC(=O)/C=C2\CC(C(=O)O)Nc3cc(Cl)cc(Cl)c32)c1` (racemic) [Example 6, (+/-)(E)-4-(3-Acetylamino-Phenylcarbamoylmethylene)-5,7-Dichloro-1,2,3,4-Tetrahydro-Quinoline-2-Carboxylic Acid], the Ki in test [2] (setting [4]) was 15.8 nM.
Same read-out and setting: the result for `O=C(/C=C1\CC(C(=O)O)Nc2cc(Cl)cc(Cl)c21)Nc1cccc(Cl)c1` (racemic) [Example 7, (+/-)(E)-5,7-Dichloro-4-[3-(Chloro)Phenylcarbamoylmethylene]-1,2,3,4-Tetrahydro-Quinoline-2-Carboxylic Acid] reads 39.8 nM; that for `Nc1ccc(NC(=O)/C=C2\CC(C(=O)O)Nc3cc(Cl)cc(Cl)c32)cc1` (racemic) [Example 8, (+/-)(E)-4-(4-Amino-Phenylcarbamoylmethylene)-5,7-Dichloro-1,2,3,4-Tetrahydro-Quinoline-2-Carboxylic Acid], 15.8 nM; that for `NC(=O)NCc1ccc(NC(=O)/C=C2\CC(C(=O)O)Nc3cc(Cl)cc(Cl)c32)cc1` (racemic) [Example 9, (+/-)(E)-5,7-Dichloro-4-[4(Ureidomethyl)Phenylcarbamoylmethylene]-1,2,3,4-Tetrahydro-Quinoline-2-Carboxylic Acid], 3.98 nM.
The same measure, in the same setting: the result for `O=CNCc1ccc(NC(=O)/C=C2\CC(C(=O)O)Nc3cc(Cl)cc(Cl)c32)cc1` (racemic) [Example 10, (+/-)(E)-5,7-Dichloro-4-[4(Formylaminomethyl)Phenylcarbomoylmethylene]-1,2,3,4-Tetrahydro-Quinoline-2-Carboxylic Acid] reads 5.01 nM; that for `CC(=O)NCc1ccc(NC(=O)/C=C2\CC(C(=O)O)Nc3cc(Cl)cc(Cl)c32)cc1` (racemic) [Example 11, (+/-)(E)-5,7-Dichloro-4-[4(Acetylaminomethyl)Phenylcarbomoylmethylene]-1,2,3,4-Tetrahydro-Quinoline-2-Carboxylic Acid], 5.01 nM.
On the same count and under the same terms, next, `CC(C)C(=O)Nc1ccc(NC(=O)/C=C2\CC(C(=O)O)Nc3cc(Cl)cc(Cl)c32)cc1` (racemic) [Example 12, (+/-)(E)-5,7-Dichloro-4-[4(Isobutyrylamino)Phenylcarbomoylmethylene]-1,2,3,4-Tetrahydro-Quinoline-2-Carboxylic Acid]: 15.8 nM; `CC(C)C(=O)NCc1ccc(NC(=O)/C=C2\CC(C(=O)O)Nc3cc(Cl)cc(Cl)c32)cc1` (racemic) [Example 13]: 15.8 nM.
As for `O=C(/C=C1\CC(C(=O)O)Nc2cc(Cl)cc(Cl)c21)Nc1ccc(CN2CCOCC2)cc1` (racemic) [Example 14, (+/-)(E)-5,7-Dichloro-4-(4-Morpholin-4-Ylmethyl-Phenylcarbamoylmethylene)-1,2,3,4-Tetrahydro-Quinoline-2-Carboxylic Acid], in test [2] (setting [4]), the Ki is 7.94 nM.
Same read-out and setting: next, `O=C(O)Cc1ccc(NC(=O)/C=C2\CC(C(=O)O)Nc3cc(Cl)cc(Cl)c32)cc1` (racemic) [Example 15, (+/-)(E)-4-(4-Carboxymethyl-Phenylcarbamoylmethylene)-5,7-Dichloro-1,2,3,4-Tetrahydro-Quinoline-2-Carboxylic Acid]: 19.1 nM.
Still for that read-out and setting: next, `NC(=O)Cc1ccc(NC(=O)/C=C2\CC(C(=O)O)Nc3cc(Cl)cc(Cl)c32)cc1` (racemic) [Example 16, (+/-)(E)-5,7-Dichloro-4-(4-Carbamoylmethyl-Phenylcarbamoylmethylene)-1,2,3,4-Tetrahydro-Quinoline-2-Carboxylic Acid]: 6.61 nM; `CC(C)C(=O)NCCc1ccc(NC(=O)/C=C2\CC(C(=O)O)Nc3cc(Cl)cc(Cl)c32)cc1` (racemic) [Example 17, (+/-)(E)-5,7-Dichloro-4-[4-(2-Isobutyrylamino-Ethyl)Phenylcarbamoylmethylene]-1,2,3,4-Tetrahydro-Quinoline-2-Carboxylic Acid]: 12.6 nM; `CC(=O)NCCc1ccc(NC(=O)/C=C2\CC(C(=O)O)Nc3cc(Cl)cc(Cl)c32)cc1` (racemic) [Example 18, (+/-)(E)-5,7-Dichloro-4-[4-(2-Acetylamino-Ethyl)Phenylcarbamoylmethylene]-1,2,3,4-Tetrahydro-Quinoline-2-Carboxylic Acid]: 12.6 nM.
As to `CC(C)CC(=O)Nc1ccc(NC(=O)/C=C2\CC(C(=O)O)Nc3cc(Cl)cc(Cl)c32)cc1` (racemic) [Example 19, (+/-)(E)-5,7-Dichloro-4-[4-(3-Methyl-Butyrylamino)-Phenylcarbamoylmethylene]-1,2,3,4-Tetrahydro-Quinoline-2-Carboxylic Acid], in test [2] (setting [4]), the Ki was 18.6 nM.
Same read-out and setting: next, `O=C(/C=C1\CC(C(=O)O)Nc2cc(Br)cc(Br)c21)Nc1ccccc1` (racemic) [Example 21, (+/-)-(E)-5,7-Dibromo-4-Phenylcarbamoylmethylene-1,2,3,4-Tetrahydroquinoline-2-Carboxylic Acid]: 26.3 nM.
Same read-out and setting: next, `O=C(/C=C1\CC(C(=O)[O-])Nc2cc(Cl)cc(Cl)c21)Nc1ccccc1.[Na+]` (racemic) [Sodium Salt]: 6.31 nM.

The values are drawn from US5977136A, “Tetrahydroquinolines as NMDA antagonists” (Glaxo Wellcome SpA, priority 1995, dated 1999).
